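Protocol summary: plate cells (96-well), add compound at 5 concentrations, incubate 48 h, interpolate endpoints linearly. GI50: concentration for 50% inhibition of growth.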 Active and inactive are the calls of the source. Cut-off read from the data, not from the text of the source: active = GI50 up to about 1.1 µM and inactive = higher.
Assays:
Test in all cases: growth of human tumour cells (NCI), 48 h
IGROV-1 = test system: IGROV-1
T47D = test system: T47D
OVCAR-3 = test system: OVCAR-3
MCF7 = test system: MCF7
TK-10 = test system: TK-10
UO-31 = test system: UO-31
SNB-19 = test system: SNB-19
ACHN = test system: ACHN
SF-539 = test system: SF-539
UACC-62 = test system: UACC-62
RXF 393 = test system: RXF 393
U-251 = test system: U-251
MDA-MB-231 = test system: MDA-MB-231
SF-295 = test system: SF-295
SNB-75 = test system: SNB-75
A498 = test system: A498
NCI-H522 = test system: NCI-H522
K562 = test system: K562
OVCAR-5 = test system: OVCAR-5
EKVX = test system: EKVX
CCRF-CEM = test system: CCRF-CEM
SW-620 = test system: SW-620
MDA-MB-435 = test system: MDA-MB-435
SK-MEL-5 = test system: SK-MEL-5
HOP-62 = test system: HOP-62
SN12C = test system: SN12C
SK-OV-3 = test system: SK-OV-3
NCI-H23 = test system: NCI-H23
DU-145 = test system: DU-145
HCT-116 = test system: HCT-116
NCI-H460 = test system: NCI-H460
MOLT-4 = test system: MOLT-4
OVCAR-4 = test system: OVCAR-4
COLO 205 = test system: COLO 205
KM12 = test system: KM12
SK-MEL-2 = test system: SK-MEL-2
CAKI-1 = test system: CAKI-1
NCI/ADR-RES = test system: NCI/ADR-RES
HCT-15 = test system: HCT-15
Hs-578T = test system: Hs-578T
PC-3 = test system: PC-3
NCI-H226 = test system: NCI-H226
786-0 = test system: 786-0
SF-268 = test system: SF-268
HOP-92 = test system: HOP-92
M14 = test system: M14
Malme-3M = test system: Malme-3M
RPMI-8226 = test system: RPMI-8226
BT-549 = test system: BT-549
HT-29 = test system: HT-29
SK-MEL-28 = test system: SK-MEL-28
LOX IMVI = test system: LOX IMVI
HL-60 = test system: HL-60
HCC 2998 = test system: HCC 2998
A549 = test system: A549
OVCAR-8 = test system: OVCAR-8
UACC-257 = test system: UACC-257

Compound: CO[C@@H]1[C@H](O)CC[C@]2(CO2)[C@H]1[C@@]1(C)O[C@@H]1CC=C(C)C
- GI50 (IGROV-1): 104 µM (inactive)
- GI50 (T47D): > 200 µM (inactive)
- GI50 (OVCAR-3): 189 µM (inactive)
- GI50 (MCF7): > 200 µM (inactive)
- GI50 (TK-10): > 200 µM (inactive)
- GI50 (UO-31): 83.2 µM (inactive)
- GI50 (SNB-19): 79.1 µM (inactive)
- GI50 (ACHN): 155 µM (inactive)
- GI50 (SF-539): 134 µM (inactive)
- GI50 (UACC-62): 54.3 µM (inactive)
- GI50 (RXF 393): > 200 µM (inactive)
- GI50 (U-251): 2.29 µM (inactive)
- GI50 (MDA-MB-231): 157 µM (inactive)
- GI50 (SF-295): 11 µM (inactive)
- GI50 (SNB-75): > 200 µM (inactive)
- GI50 (A498): > 200 µM (inactive)
- GI50 (NCI-H522): > 200 µM (inactive)
- GI50 (K562): > 200 µM (inactive)
- GI50 (OVCAR-5): > 200 µM (inactive)
- GI50 (EKVX): 165 µM (inactive)
- GI50 (CCRF-CEM): > 200 µM (inactive)
- GI50 (SW-620): 107 µM (inactive)
- GI50 (MDA-MB-435): 95.5 µM (inactive)
- GI50 (SK-MEL-5): > 200 µM (inactive)
- GI50 (HOP-62): 58.2 µM (inactive)
- GI50 (SN12C): 25 µM (inactive)
- GI50 (SK-OV-3): > 200 µM (inactive)
- GI50 (NCI-H23): > 200 µM (inactive)
- GI50 (DU-145): 140 µM (inactive)
- GI50 (HCT-116): 84.3 µM (inactive)
- GI50 (NCI-H460): 0.617 µM (active)
- GI50 (MOLT-4): 80.5 µM (inactive)
- GI50 (OVCAR-4): > 200 µM (inactive)
- GI50 (COLO 205): 152 µM (inactive)
- GI50 (KM12): 34.1 µM (inactive)
- GI50 (SK-MEL-2): > 200 µM (inactive)
- GI50 (CAKI-1): > 200 µM (inactive)
- GI50 (NCI/ADR-RES): > 200 µM (inactive)
- GI50 (HCT-15): 46.1 µM
- GI50 (Hs-578T): > 200 µM (inactive)
- GI50 (PC-3): > 200 µM (inactive)
- GI50 (NCI-H226): > 200 µM (inactive)
- GI50 (786-0): > 200 µM (inactive)
- GI50 (SF-268): > 200 µM (inactive)
- GI50 (HOP-92): > 200 µM (inactive)
- GI50 (M14): 180 µM (inactive)
- GI50 (Malme-3M): 81.8 µM (inactive)
- GI50 (RPMI-8226): 185 µM (inactive)
- GI50 (BT-549): > 200 µM (inactive)
- GI50 (HT-29): > 200 µM (inactive)
- GI50 (SK-MEL-28): > 200 µM (inactive)
- GI50 (LOX IMVI): 32.7 µM (inactive)

Compound: CN(C)/C=N/C1CCC(C(C)(C)C)CC1 (stereo unspecified)
- GI50 (IGROV-1): 21.5 µM (inactive)
- GI50 (T47D): 16.4 µM (inactive)
- GI50 (OVCAR-3): 14.5 µM (inactive)
- GI50 (MCF7): 27.9 µM (inactive)
- GI50 (TK-10): 21.8 µM (inactive)
- GI50 (UO-31): 16.3 µM (inactive)
- GI50 (SNB-19): 20.4 µM (inactive)
- GI50 (ACHN): 21.2 µM (inactive)
- GI50 (SF-539): 17.5 µM (inactive)
- GI50 (UACC-62): 19 µM (inactive)
- GI50 (RXF 393): 19.2 µM (inactive)
- GI50 (HL-60): 15.3 µM (inactive)
- GI50 (U-251): 16.1 µM (inactive)
- GI50 (MDA-MB-231): 13.6 µM (inactive)
- GI50 (SF-295): 17.4 µM (inactive)
- GI50 (SNB-75): 19.5 µM (inactive)
- GI50 (A498): 24 µM (inactive)
- GI50 (NCI-H522): 16.6 µM (inactive)
- GI50 (K562): 15 µM (inactive)
- GI50 (OVCAR-5): 17.7 µM (inactive)
- GI50 (HCC 2998): 14.8 µM (inactive)
- GI50 (EKVX): 22.4 µM (inactive)
- GI50 (SW-620): 16.9 µM (inactive)
- GI50 (MDA-MB-435): 18.7 µM (inactive)
- GI50 (SK-MEL-5): 17.3 µM (inactive)
- GI50 (HOP-62): 17.2 µM (inactive)
- GI50 (SN12C): 17.7 µM (inactive)
- GI50 (SK-OV-3): 21.3 µM (inactive)
- GI50 (NCI-H23): 17.8 µM (inactive)
- GI50 (DU-145): 24.9 µM (inactive)
- GI50 (HCT-116): 16 µM (inactive)
- GI50 (NCI-H460): 16.7 µM (inactive)
- GI50 (A549): 18.7 µM (inactive)
- GI50 (MOLT-4): 12.9 µM (inactive)
- GI50 (OVCAR-4): 18 µM (inactive)
- GI50 (OVCAR-8): 15.6 µM (inactive)
- GI50 (COLO 205): 17.3 µM (inactive)
- GI50 (SK-MEL-2): 18.6 µM (inactive)
- GI50 (CAKI-1): 18.9 µM (inactive)
- GI50 (NCI/ADR-RES): 17.7 µM (inactive)
- GI50 (HCT-15): 17.2 µM
- GI50 (Hs-578T): 20.7 µM (inactive)
- GI50 (PC-3): 15.1 µM (inactive)
- GI50 (NCI-H226): 19.3 µM (inactive)
- GI50 (786-0): 17.6 µM (inactive)
- GI50 (SF-268): 28.4 µM (inactive)
- GI50 (HOP-92): 15.5 µM (inactive)
- GI50 (M14): 17.6 µM (inactive)
- GI50 (Malme-3M): 18.4 µM (inactive)
- GI50 (UACC-257): 15.7 µM (inactive)
- GI50 (BT-549): 18.5 µM (inactive)
- GI50 (HT-29): 8.69 µM (inactive)
- GI50 (SK-MEL-28): 15.9 µM (inactive)
- GI50 (LOX IMVI): 15.5 µM (inactive)

Reference: ChEMBL document CHEMBL1201862, “PubChem BioAssay data set” (2004)
